Measurements as given in patent publication US20180055020A1, “Mice With Transgene Of iBox Peptide Inhibitor Of Group B p21-Activated Kinases” (Institute For Cancer Research d/b/a The Research Institute …, priority 2016, published 2018).

What was measured:
Assay type in all cases: cell-based, mouse
Src = test: Immunoblot of lysates of ROSA26-iBox MEFs for signaling molecules (Src and P-Src); conditions: lysates of MEFs expressing iBox (Adeno-Cre), FIG. 5D
Protocol: (§1) Primary mouse embryo fibroblasts were established from E14 embryos from pregnant ROSA26-iBox mice. Cell lines were maintained in DMEM medium supplemented with 10% of FBS, 2 mM L-glutamine and 100 Um′ penicillin/streptomycin ay 37° C. in a humidified 5% CO2 incubator. To document iBox and EGFP expression, the MEFs were transduced with Adeno-Cre which removes the LSL cassette. MEFs were imaged to documents EGFP expression and lysates were probed by immunoblot to document iBox expression using anti-GST antibodies that recognize the GST protein that is fused to the N-terminus of iBox. These lysates were also probed with antibodies against Erk and P-Erk, Src and P-Src, Fak and P-Fak, as well as GAPDH.
(§2) To analyze endogenous Pak4 activity, Pak4 was immunoprecipitated from ROSA26-iBox MEFs and Protein-A-Pak4 beads were incubated with recombinant Pacsin or CRTC1 for 10 minutes at 30° C. in a buffer containing 50 mM Tris-HCl, pH 7.5, 10 mM MgCl2, 1 mM DTT, and 50 μM ATP. Reactions were terminated with hot 6×SDS/PAGE buffer and the samples were analyzed by immunoblot using anti-P-pacsin or anti-P-CRTC1 antibodies. […] Inhibition of Erk, Src, and Fak was observed.

Erk = test: Immunoblot of lysates of ROSA26-iBox MEFs for signaling molecules (Erk and P-Erk); conditions: lysates of MEFs expressing iBox (Adeno-Cre), FIG. 5D
Protocol: as §1, §2

Fak = test: Immunoblot of lysates of ROSA26-iBox MEFs for signaling molecules (Fak and P-Fak); conditions: lysates of MEFs expressing iBox (Adeno-Cre), FIG. 5D
Protocol: as §1, §2

[1] = system: each of the tissues studied; test: Cell proliferation on expression of the iBox transgene (preliminary experiments)
Protocol: Cells were plated at 2×10^3 in 96-well plates and 10 μl of 3-[4,5-dimethylthiazol-2-yl]-2,5-diphenyl tetrazolium bromide (MTT) solution was added to each well to a final concentration of 0.5 mg/ml. The reaction was stopped after 4 hours at 37° C. by adding 100 μl of solubilization solution (10% SDS in 0.01M HCl) and the samples were analyzed at 595 nm on Perkin Elmer Envision plate reader. Triplicates were performed for each sample, and experiments were performed on three occasions. […] An anti-Gst blot is shown.

iBox: Peptide inhibitor of Group B Paks, derived from amino acids 166 to 203 of human INKA-1, linked to GST, expressed from a transgene (GLEAEDWTAALLNRGRSRQPLVLGDNCFADLVHNWMEL; GST fusion; UniProt Q96EL1 166-203, looked up, fragment)
effect on Src signaling (immunoblot) (Src): Inhibition
effect on Erk signaling (immunoblot) (Erk): Inhibition
effect on Fak signaling (immunoblot) (Fak): Inhibition
effect of iBox transgene expression on cell proliferation [1]: inhibited cell proliferation
